In PMC7890096, “Binding of non-canonical peptidoglycan controls Vibrio cholerae broad spectrum racemase activity” (Computational and Structural Biotechnology Journal, 2021):

Tested on: BsrV
Experiment: in vitro BsrV racemase assay (L-Ala substrate) with muropeptides, Marfey's/HPLC
Format: biochemical, Vibrio cholerae
Settings: 4 mM L-Ala, 5 min at 37 °C, Bicarbonate buffer 50 mM pH 9, Fig. 3A; for inhibition of BsrV D-Ala production, in words: D-cycloserine 0.1 mM, tripeptide and D-Ala-D-Ala at equal concentration (amino acid, tripeptide/dipeptide), p dipeptide vs tripeptide = 0.0181, tripeptide vs M4 = 0.0027, M3R vs D-cycloserine < 0.0001
Description: For activity assays, in vitro LAA and DAAS were characterized with Marfey’s (FDAA)-derivatization in HPLC and DAAO assay (D-amino acid oxidase) performed as described. The product from a racemization reaction was derivatized with L-FDAA (1-fluoro-2-4-dinitrophenyl-5-L-alanine amide, Marfey’s reagent, Thermo Scientific). First, an equal volume of NaHCO3 0.5 M was added to the racemization reaction; then, 6 µL of this reaction was reacted with FDAA (10 mg/mL in acetone) at 80 °C for 3 min. The reaction was stopped with HCl 2 N and the samples were filtered. The products were separated with a linear gradient of triethylamine phosphate/acetonitrile in HPLC with an Aeris peptide column (250 × 4.6 mm; 3.6 μm particle size) (Phenomenex, USA) and detected at Abs.340 nm. To determine the inhibition effect of the sacculus in BsrV's activity, 35 µg of sacculi were incubated for 5 min at 37 °C with BsrV and 4 mM of L-Ala in Tris-HCl 50 mM pH 8. […] DAAO reaction was determined by coupling 10 µL of the extract into 150 µL of a reaction containing: sodium phosphate buffer 100 mM pH 7, Trigonopsis variabilis D-amino acid oxidase (DAAO) (Komarova et al., 2012) 3.6 U/ml, horseradish peroxidase 1 U/mL, o-phenylenediamine (OPD) 2 mg/mL and FAD 3 mg/ml. This two-step assay permits the quantification of H2O2 (DAAO is able to produce α-ketoacid, NH3 and H2O2 from DAA). Peroxidase reduces H2O2, […], leading to the production of 2,3–25 diaminophenazine. The reaction was incubated for 2 h at 37 °C and inactivated with HCl 3 M, giving a colorimetric product that can be measured at 492 nm. To determine the inhibition effect of muropeptides in BsrV's activity, 0.1 mM of M4 (GlcNAc-MurNAc-Ala-Glu-DAP (Diaminopimelate)-Ala), M3M (GlcNAc-MurNAc-Ala-Glu-DAP-Met), M3R (GlcNAc-MurNAc-Ala-Glu-DAP-Arg) and D-cycloserine were incubated with BsrV and 4 mM of L-Ala for 5 min at 37 °C (1/40 relation) in Bicarbonate buffer 50 mM pH 9. In the case of tripeptide and D-Ala-D-Ala, equal concentration (amino acid, tripeptide/dipeptide) was utilized.
Fig. 3 Peptidoglycan inhibits BsrV’s activity. (A) Inhibitory effect of muropeptides on BsrV activity. In vitro BsrV racemase assays with L-Ala as substrate in the presence of (see schematics): M4 (disaccharide tetrapeptide), M3M and M3R; the asterisk represents D-Met and D-Arg substitutions in the fourth position. […] P values: [dipeptide vs tripeptide] = 0.0181; [tripeptidevsM4] = 0.0027; [M4vsM3M] = 0.0003; [M4vsM3R] < 0.0003; [M3MvsM3R] = 0.2552; [M3RvsD-cycloserine] < 0.0001. (B) Inhibitory effect of peptidoglycan sacculi on BsrV activity. In vitro BsrV racemase assays with L-Ala as substrate in the presence of undigested sacculi (see schematics). Sugar rings are represented by hexagons and peptides are depicted. […]

Compound | inhibition of BsrV D-Ala production, in words | reduction in D-Ala production (% of inhibition) (0.1 mM muropeptide, Marfey's derivatization, HPLC 340 nm, vs control reaction with no inhibitor, single time point, p M4 vs M3M = 0.0003, M4 vs M3R < 0.0003, M3M vs M3R = 0.2552)
N[C@@H]1CON=C1O [D-cycloserine] | inhibit the least | –
CC(=O)N[C@H]1[C@H](O[C@H]2[C@H](O[C@H](C)C(=O)N[C@@H](C)C(=O)N[C@H](CCC(=O)N[C@@H](CCC[C@@H](N)C(=O)O)C(=O)N[C@H](C)C(=O)O)C(=O)O)[C@@H](NC(C)=O)C(O)O[C@@H]2CO)O[C@H](CO)[C@@H](O)[C@@H]1O (stereo partly drawn) [M4, GlcNAc-MurNAc-Ala-Glu-DAP-Ala] | – | ~ 20%
D-Ala-D-Ala [dipeptide] | inhibit the least | –
L-Ala-D-Glu-D-Lys [tripeptide] | inhibit the least | –
